The values that follow come from ChEMBL document CHEMBL3886339, “mGluR4 allosteric potentiators, compositions, and methods of treating neurological dysfunction” (2015).

Sequence of Metabotropic glutamate receptor 4 (Q14833 whole entry): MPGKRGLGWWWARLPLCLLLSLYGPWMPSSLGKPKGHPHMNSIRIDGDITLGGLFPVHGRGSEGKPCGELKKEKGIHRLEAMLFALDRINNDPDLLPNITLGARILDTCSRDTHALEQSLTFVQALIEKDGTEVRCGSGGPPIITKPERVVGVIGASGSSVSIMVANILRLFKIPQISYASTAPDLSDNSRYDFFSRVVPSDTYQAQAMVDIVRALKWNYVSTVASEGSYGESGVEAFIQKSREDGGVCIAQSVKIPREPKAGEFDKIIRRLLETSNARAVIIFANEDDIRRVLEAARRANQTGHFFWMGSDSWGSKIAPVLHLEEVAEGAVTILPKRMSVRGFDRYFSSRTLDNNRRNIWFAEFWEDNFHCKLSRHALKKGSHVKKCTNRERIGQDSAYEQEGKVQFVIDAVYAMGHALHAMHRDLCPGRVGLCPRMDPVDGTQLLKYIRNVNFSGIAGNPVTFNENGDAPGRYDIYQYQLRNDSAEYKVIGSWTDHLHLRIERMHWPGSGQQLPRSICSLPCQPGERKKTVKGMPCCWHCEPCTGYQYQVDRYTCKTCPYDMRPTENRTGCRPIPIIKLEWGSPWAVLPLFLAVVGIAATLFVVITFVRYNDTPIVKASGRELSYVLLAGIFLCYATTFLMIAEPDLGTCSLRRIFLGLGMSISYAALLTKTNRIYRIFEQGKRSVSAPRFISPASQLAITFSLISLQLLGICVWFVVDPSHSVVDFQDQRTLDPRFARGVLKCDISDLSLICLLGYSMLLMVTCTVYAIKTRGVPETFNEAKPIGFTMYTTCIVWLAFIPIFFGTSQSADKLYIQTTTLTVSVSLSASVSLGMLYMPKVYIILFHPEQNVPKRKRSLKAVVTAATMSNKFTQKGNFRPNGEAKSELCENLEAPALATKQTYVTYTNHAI

This test addresses Metabotropic glutamate receptor 4 (Homo sapiens, UniProt Q14833). It counts as functional, cell-based, HEK293.
The EC50 is the concentration at which the effect is half-maximal. The molecule `Cc1cc(S(=O)(=O)n2cc(NC(=O)c3ccccn3)cn2)ccc1Cl` came in with an EC50 of 151 nM.

`O=C(Nc1cnn(S(=O)(=O)c2ccc(C(F)(F)F)cc2)c1)c1ccccn1` registered an EC50 of 266 nM.

For the molecule `O=C(Nc1cnn(S(=O)(=O)c2ccc(F)c(F)c2)c1)c1nccs1`, the EC50 came out at 4160 nM. Against the preceding molecule, the EC50 is about 16-fold higher.

`O=C(Nc1cnn(S(=O)(=O)c2ccc(F)c(F)c2)c1)c1ccccn1` came in with an EC50 of 1740 nM.

In turn, `Cc1ccc(S(=O)(=O)n2cc(NC(=O)c3ccccn3)cn2)cc1F` registered an EC50 of 137 nM. This EC50 lies about 13-fold lower than the previous one.

`Cc1cc(F)ccc1S(=O)(=O)n1cc(NC(=O)c2ccccn2)cn1` gave an EC50 of 2340 nM. This EC50 is about 17-fold higher than that of the molecule before.

In turn, `Cc1ccc(S(=O)(=O)n2cc(NC(=O)c3nccs3)cn2)cc1` registered an EC50 of 324 nM.

`O=C(Nc1cnn(S(=O)(=O)c2ccc(F)c(Cl)c2)c1)c1ccccn1` returned an EC50 of 138 nM.

The molecule `Cc1ccc(S(=O)(=O)n2cc(NC(=O)c3ccccn3)cn2)c(C)c1` came in with an EC50 of 486 nM.

Regarding `Cc1ccc(S(=O)(=O)n2cc(NC(=O)c3ccccn3)cn2)cc1`, the EC50 came to 9880 nM.

Regarding `O=C(Nc1cnn(S(=O)(=O)c2ccc(Cl)c(Cl)c2)c1)c1ccccn1`, the EC50 was found to be 204 nM.

For `O=C(Nc1cnn(S(=O)(=O)c2cc(F)c(F)c(F)c2)c1)c1ccccn1`, the EC50 was 234 nM. The EC50 values of the last two molecules are within 1.5-fold of each other.

Take `O=C(Nc1cnn(S(=O)(=O)c2ccc(F)cc2F)c1)c1ccccn1`: the EC50 was determined as 1620 nM.

As for `COc1ccc(S(=O)(=O)n2cc(NC(=O)c3ccccn3)cn2)cc1Cl`, a half-maximal response (EC50) required 260 nM.

`O=C(Nc1cnn(S(=O)(=O)c2cc(F)c(F)cc2F)c1)c1ccccn1` gave an EC50 of 1770 nM. Compared with the last molecule, the EC50 is about 6.8-fold higher.

`CCc1ccc(S(=O)(=O)n2cc(NC(=O)c3ccccn3)cn2)cc1` displayed an EC50 of 248 nM. This EC50 is about 7.1-fold lower than that of the molecule before.

The molecule `Cc1ccc(S(=O)(=O)n2cc(NC(=O)c3nccs3)cn2)cc1C` gave an EC50 of 652 nM.

`Cc1cc(S(=O)(=O)n2cc(NC(=O)c3ccccn3)cn2)ccc1F` returned an EC50 of 124 nM.

Consider `Cc1cccc(S(=O)(=O)n2cc(NC(=O)c3nccs3)cn2)c1`, for which the response was half-maximal at 234 nM (EC50).

The molecule `O=C(Nc1cnn(S(=O)(=O)c2ccc(Cl)cc2F)c1)c1ccccn1` gave an EC50 of 128 nM.

Turning to `Cc1cccc(S(=O)(=O)n2cc(NC(=O)c3ccccn3)cn2)c1`, the EC50 turned out to be 163 nM.

`O=C(Nc1cnn(S(=O)(=O)c2cccc(Cl)c2F)c1)c1ccccn1`: the EC50 stood at 5240 nM.

On to `O=C(Nc1cnn(S(=O)(=O)c2cc(Cl)ccc2Cl)c1)c1ccccn1`, for which the EC50 was determined as 197 nM.

`O=C(Nc1cnn(S(=O)(=O)c2ccc(Cl)c(F)c2)c1)c1ccccn1`: the EC50 stood at 3910 nM. Against the preceding molecule, the EC50 is about 20-fold higher.

For `COc1ccc(S(=O)(=O)n2cc(NC(=O)c3ccccn3)cn2)cc1`, the EC50 is 170 nM. This EC50 lies about 23-fold lower than the previous one.

The molecule `Cc1ccc(S(=O)(=O)n2cc(NC(=O)c3ccccn3)cn2)cc1C` came in with an EC50 of 144 nM. The EC50 values of the last two molecules are within 1.5-fold of each other.

In the case of `O=C(Nc1cnn(S(=O)(=O)c2ccc(F)c(F)c2F)c1)c1ccccn1`, it took 282 nM to reach a half-maximal effect (EC50).

`O=C(Nc1cnn(S(=O)(=O)c2cc(Cl)ccc2F)c1)c1ccccn1` gave an EC50 of 2250 nM.

As for `O=C(Nc1cnn(S(=O)(=O)c2cc(F)c(F)cc2Cl)c1)c1ccccn1`, the midpoint of the response, the EC50, lay at 1170 nM.
